Reference: ChEMBL document CHEMBL1201862, “PubChem BioAssay data set” (2004)
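Where inhibition never reached the appropriate level, the endpoint shown equals the highest concentration tested. Otherwise, values were interpolated linearly from a five-concentration, 48-hour dose response in 96-well plates. GI50: concentration for 50% inhibition of growth.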 Activity calls are given as the source filed them. Cut-off read from the data, not from the text of the source: active = GI50 up to about 1.1 µM and inactive = higher.

Experiments:
Test in all cases: NCI-60 cell line screen, 48 h
[1] = tested on: COLO 205
[2] = tested on: OVCAR-3
[3] = tested on: MCF7
[4] = tested on: ACHN
[5] = tested on: OVCAR-5
[6] = tested on: NCI/ADR-RES
[7] = tested on: HOP-62
[8] = tested on: A498
[9] = tested on: HCT-116
[10] = tested on: SK-MEL-5
[11] = tested on: TK-10
[12] = tested on: A549
[13] = tested on: MDA-MB-435
[14] = tested on: SF-268
[15] = tested on: SR
[16] = tested on: HOP-92
[17] = tested on: T47D
[18] = tested on: SF-539
[19] = tested on: SK-MEL-28
[20] = tested on: UO-31
[21] = tested on: RXF 393
[22] = tested on: SNB-75
[23] = tested on: U-251
[24] = tested on: MDA-N
[25] = tested on: MDA-MB-231
[26] = tested on: UACC-62
[27] = tested on: HL-60
[28] = tested on: SN12C
[29] = tested on: SNB-19
[30] = tested on: Hs-578T
[31] = tested on: KM12
[32] = tested on: NCI-H460
[33] = tested on: SW-620
[34] = tested on: K562
[35] = tested on: SK-MEL-2
[36] = tested on: HCT-15
[37] = tested on: M14
[38] = tested on: IGROV-1
[39] = tested on: HCC 2998
[40] = tested on: 786-0
[41] = tested on: UACC-257
[42] = tested on: Malme-3M
[43] = tested on: RPMI-8226
[44] = tested on: DU-145
[45] = tested on: HT-29
[46] = tested on: NCI-H23
[47] = tested on: BT-549
[48] = tested on: OVCAR-4
[49] = tested on: LOX IMVI
[50] = tested on: SK-OV-3
[51] = tested on: NCI-H226

## Cc1ccc(-c2cn3c(nc4ccccc43)c(/C=C/c3ccco3)n2)cc1
[1]
  GI50: 61.7 µM (inactive)
[2]
  GI50: 49.8 µM (inactive)
[3]
  GI50: 29.6 µM (inactive)
[4]
  GI50: > 100 µM (inactive)
[5]
  GI50: > 100 µM (inactive)
[6]
  GI50: > 100 µM (inactive)
[7]
  GI50: > 100 µM (inactive)
[8]
  GI50: > 100 µM (inactive)
[9]
  GI50: > 100 µM (inactive)
[10]
  GI50: 34.8 µM (inactive)
[11]
  GI50: > 100 µM (inactive)
[12]
  GI50: > 100 µM (inactive)
[13]
  GI50: 29.2 µM (inactive)
[14]
  GI50: 59.7 µM (inactive)
[15]
  GI50: 19.6 µM (inactive)
[16]
  GI50: > 100 µM (inactive)
[17]
  GI50: 71.4 µM (inactive)
[18]
  GI50: > 100 µM (inactive)
[19]
  GI50: 58.1 µM (inactive)
[20]
  GI50: > 100 µM (inactive)
[21]
  GI50: > 100 µM (inactive)
[22]
  GI50: > 100 µM (inactive)
[23]
  GI50: 60.5 µM (inactive)
[24]
  GI50: 42.1 µM (inactive)
[25]
  GI50: > 100 µM (inactive)
[26]
  GI50: > 100 µM (inactive)
[27]
  GI50: 22.2 µM (inactive)
[28]
  GI50: 86.9 µM (inactive)
[29]
  GI50: > 100 µM (inactive)
[30]
  GI50: 31.9 µM (inactive)
[31]
  GI50: 50.1 µM (inactive)
[32]
  GI50: 58.1 µM (inactive)
[33]
  GI50: 47.6 µM (inactive)
[34]
  GI50: 37.7 µM (inactive)
[35]
  GI50: 22.1 µM (inactive)
[36]
  GI50: > 100 µM
[37]
  GI50: > 100 µM (inactive)
[38]
  GI50: 62.1 µM (inactive)
[39]
  GI50: > 100 µM (inactive)
[40]
  GI50: 48 µM (inactive)
[41]
  GI50: 82.6 µM (inactive)
[42]
  GI50: 65.6 µM (inactive)
[43]
  GI50: 21 µM (inactive)
[44]
  GI50: > 100 µM (inactive)
[45]
  GI50: > 100 µM (inactive)
[46]
  GI50: 37 µM (inactive)
[47]
  GI50: > 100 µM (inactive)
[48]
  GI50: 56.8 µM (inactive)
[49]
  GI50: 69.2 µM (inactive)
[50]
  GI50: > 100 µM (inactive)
[51]
  GI50: > 100 µM (inactive)
